Patent US4676822A, “Fluid fertilizers containing thiophosphoryl triamide” (Tennessee Valley Authority, priority 1986, dated 1987)
“And” between values parts separate entries of the source, which are not always exact repeats. Identical values can stand only once.

Columns and labels:
[1] = Stability of TPTA in UAN (36-0-0) at 25° C. (HPLC); assay type: physicochemical; conditions: for % original TPTA remaining: UAN (36-0-0)
Protocol: A sample containing 1 weight percent TPTA was prepared by dissolving 1 g of TPTA in 99 g of 36-0-0 having the composition given in Table I, supra, and an initial pH of 7.4. The sample was maintained at room temperature (25° C.) and analyzed periodically for TPTA by HPLC.
The results of this kinetic study are given in Table V supra, and as noted supra, plotted in FIG. 4 along with the first-order rate equation (solid line in FIG. 4) which was determined by linear regression.

[2] = Stability of TPTA in UAN (31-0-0) at 25° C. (HPLC); assay type: physicochemical; conditions: for % original TPTA remaining: UAN (31-0-0)
Protocol: A sample containing 1 weight percent TPTA was prepared by dissolving 1 g of TPTA in 99 g of 31-0-0 having the composition given in Table I, supra, and an initial pH of 8.1. The sample was maintained at room temperature (25° C.) and analyzed periodically for TPTA by HPLC. The results of the kinetic study are given in Table V infra and as noted supra plotted in FIG. 4 along with the first-order rate equation (solid line in FIG. 4) which was determined by linear regression.

[3] = Stability of TPTA in solid mixtures with urea (HPLC); assay type: physicochemical; conditions: solid 90% urea-10% TPTA, P(H2O) 12.73 mm Hg
Protocol: Solid samples (0.25 g) of urea-TPTA mixtures (90 weight percent urea-10 weight precent TPTA) were weighed into a 10-mL beaker, carefully spread into an even layer in the bottom of the beaker, and heated in a forced draft oven at temperatures of 42°, 50°, and 60° C. Samples were contained in desiccators inside the oven, each desiccator conataining a sodium hydroxide solution to yield a partial pressure of water of 12.73 mm Hg at the temperature employed. After heating, the samples were analyzed by High Performance Liquid Chromatography (HPLC) to determine the percent of the original TPTA remaining.
The calculated decomposition rate for 25° C., which was determined from an Arrhenius plot of the 42°, 50°, and 60° C. data are also illustrated in FIG. 2, supra. From a perusal of FIG. 2 it is clearly evident that the shelf life of urea-TPTA mixtures is of extremely short duration.

urease [4] = experiment: Urease inhibition tests with TPTA and PPDA in fluid fertilizers, banded soil system (urease-active Hastings silt loam); assay type: biochemical; conditions: for average % urea unhydrolyzed, 3 days / % urea unhydrolyzed, 3 days: 3 days incubation at 25° C.; for average % urea unhydrolyzed, 3 days / average % urea unhydrolyzed, 6 days: average of A and B samples; for % urea unhydrolyzed, 3 days / % urea unhydrolyzed, 6 days: single sample; for average % urea unhydrolyzed, 6 days / % urea unhydrolyzed, 6 days: 6 days incubation at 25° C.
Protocol: Samples of UAN (31-0-0), 1 g, and (36-0-0), 0.66 g containing approximately 0.38 g urea and 0.041 g of TPTA were prepared by dissolving solid TPTA in 31-0-0 and 36-0-0 of the compositions shown in Table I, supra. Identical samples containing PPDA and without either inhibitor were prepared to serve as references for purposes of data comparison.
Urease-active soil (Hastings silt loam) was moistened to a moisture content of 20 percent and preincubated at room temperature for two days. Plexiglass containers (6×6×6 cm) were one-half filled with soil and packed to a bulk density of 1.0 g/cm^3. The 31-0-0 and 36-0-0 samples containing TPTA and PPDA as well as samples containing no inhibitor were distributed evenly in a narrow band 6 cm along the soil surface. The containers were filled with soil and again packed to a bulk density of 1.0 g/cm^3. The containers were incubated at 25° C. for the desired reaction period. After incubation the soil from each container was thoroughly mixed, and a 10-g sample was extracted with 100 mL of 2M KCl containing 5 ppm phenylmercuric acetate to prevent urea hydrolysis during handling [L. A. Douglass and J. M. Bremner, Soil Sci. Soc. Am. Proc. 34, 859-862 (1970)]. The urea in the extracts was determined colorimetrically as a measure of unhydrolyzed urea. The results of three-day and six-day incubation tests are illustrated in Table II infra; and as noted supra, plotted in FIG. 1.

[5] = 25° C., water partial pressure 12.73 mm of Hg; cited from earlier work
urease [6] = conditions: prior art; cited from earlier work
[7] = compared with PPDA; cited from earlier work

NP(N)(N)=S [TPTA, thiophosphoryl triamide]
reaction half-life in the 36-0-0 solution ([1]; 1 wt % TPTA, initial pH 7.4, first-order): 43 days
% original TPTA remaining ([1]; time 0.00 days): 100.00%
% original TPTA remaining ([1]; time 1.22 days): 100.00%
% original TPTA remaining ([1]; time 5.22 days): 93.60%
% original TPTA remaining ([1]; time 7.13 days): 97.15%
% original TPTA remaining ([1]; time 9.09 days): 81.12%
% original TPTA remaining ([1]; time 12.07 days): 82.21%
% original TPTA remaining ([1]; time 14.22 days): 84.30%
% original TPTA remaining ([1]; time 16.01 days, 23054.4 min): 79.90% and 73.86%
% original TPTA remaining ([1]; time 20.05 days): 70.87%
% original TPTA remaining ([1]; time 26.05 days): 72.43%
% original TPTA remaining ([1]; time 40.17 days): 43.14%
% original TPTA remaining ([1]; time 47.14 days): 42.94%
% original TPTA remaining ([1]; time 61.08 days): 32.25%
% original TPTA remaining ([1]; time 64.99 days): 41.41%
% original TPTA remaining ([1]; time 71.70 days): 31.14%
% original TPTA remaining ([1]; time 82.71 days, 119102 min): 29.60%
% original TPTA remaining ([1]; time 90.71 days, 130622 min): 20.67%
% original TPTA remaining ([1]; time 96.75 days): 25.07%
% original TPTA remaining ([1]; time 103.71 days): 21.73%
% original TPTA remaining ([1]; time 111.71 days): 13.09%
reaction half-life in the 31-0-0 solution ([2]; 1 wt % TPTA, initial pH 8.1, first-order): 93 days
% original TPTA remaining ([2]; time 0.00 days): 100.00%
% original TPTA remaining ([2]; time 1.22 days): 100.00%
% original TPTA remaining ([2]; time 5.22 days): 97.60%
% original TPTA remaining ([2]; time 7.13 days): 100.00%
% original TPTA remaining ([2]; time 9.09 days): 99.55%
% original TPTA remaining ([2]; time 12.07 days): 101.78%
% original TPTA remaining ([2]; time 14.22 days): 100.47%
% original TPTA remaining ([2]; time 16.01 days, 23054.4 min): 95.59% and 95.43%
% original TPTA remaining ([2]; time 20.05 days): 89.05%
% original TPTA remaining ([2]; time 26.05 days): 95.55%
% original TPTA remaining ([2]; time 40.17 days): 79.49%
% original TPTA remaining ([2]; time 47.14 days): 79.62%
% original TPTA remaining ([2]; time 61.08 days): 74.35%
% original TPTA remaining ([2]; time 64.99 days): 63.03%
% original TPTA remaining ([2]; time 71.70 days): 68.55%
% original TPTA remaining ([2]; time 82.71 days, 119102 min): 43.85%
% original TPTA remaining ([2]; time 90.71 days, 130622 min): 52.17%
% original TPTA remaining ([2]; time 96.75 days): 51.55%
% original TPTA remaining ([2]; time 103.71 days): 52.04%
% original TPTA remaining ([2]; time 111.71 days): 47.46%
% of original TPTA remaining ([3]; 42° C., heating time 0.00 hr): 100.00%
% of original TPTA remaining ([3]; 42° C., heating time 2.00 hr): 94.78%
% of original TPTA remaining ([3]; 42° C., heating time 4.00 hr): 83.48%
% of original TPTA remaining ([3]; 42° C., heating time 5.00 hr): 79.80%
% of original TPTA remaining ([3]; 42° C., heating time 7.00 hr): 60.03%
% of original TPTA remaining ([3]; 42° C., heating time 9.0 hr): 53.44%
% of original TPTA remaining ([3]; 42° C., heating time 9.75 hr): 42.06%
% of original TPTA remaining ([3]; 42° C., heating time 14.25 hr): 30.69%
% of original TPTA remaining ([3]; 42° C., heating time 16.00 hr): 8.69%
% of original TPTA remaining ([3]; 42° C., heating time 18.00 hr): 5.11%
% of original TPTA remaining ([3]; 50° C., heating time 0.00 hr): 100.00%
% of original TPTA remaining ([3]; 50° C., heating time 1.01 hr): 97.17%
% of original TPTA remaining ([3]; 50° C., heating time 2.00 hr): 93.80%
% of original TPTA remaining ([3]; 50° C., heating time 3.00 hr): 85.92%
% of original TPTA remaining ([3]; 50° C., heating time 4.00 hr): 71.31%
% of original TPTA remaining ([3]; 50° C., heating time 5.00 hr): 53.40%
% of original TPTA remaining ([3]; 50° C., heating time 6.00 hr): 34.26%
% of original TPTA remaining ([3]; 50° C., heating time 7.00 hr): 23.40%
% of original TPTA remaining ([3]; 50° C., heating time 8.00 hr): 10.56%
% of original TPTA remaining ([3]; 60° C., heating time 0.00 hr): 100.00%
% of original TPTA remaining ([3]; 60° C., heating time 1.00 hr): 94.07%
% of original TPTA remaining ([3]; 60° C., heating time 2.00 hr): 71.98%
% of original TPTA remaining ([3]; 60° C., heating time 3.00 hr): 32.26%
% of original TPTA remaining ([3]; 60° C., heating time 4.00 hr): 3.46%
% of original TPTA remaining ([3]; 60° C., heating time 5.00 hr): 0.00%
% of original TPTA remaining ([3]; 60° C., heating time 6.00 hr): 0.00%
average % urea unhydrolyzed, 3 days (urease [4]; UAN (31-0-0)): 97.90%
% urea unhydrolyzed, 3 days (urease [4]; UAN (31-0-0)): 101.90% and 93.89%
average % urea unhydrolyzed, 6 days (urease [4]; UAN (31-0-0)): 48.48%
% urea unhydrolyzed, 6 days (urease [4]; UAN (31-0-0)): 47.75% and 49.21%
average % urea unhydrolyzed, 3 days (urease [4]; UAN (36-0-0)): 88% and 87.63%
% urea unhydrolyzed, 3 days (urease [4]; UAN (36-0-0)): 91.03% and 84.24%
average % urea unhydrolyzed, 6 days (urease [4]; UAN (36-0-0)): 47.82% and 48%
% urea unhydrolyzed, 6 days (urease [4]; UAN (36-0-0)): 44.37% and 51.28%
amount of unhydrolyzed urea in the soil relative to PPDA treatment (urease [4]; after six days): approximately four times that of the PPDA treatment
reaction half-life in solid mixtures with urea [5]: 1.6 days
urease inhibition (in words) (urease [6]): comparable and in some cases more effective than PPDA
stability in urea melt [7]: substantially more stable in urea melt than PPDA
